This is an account of results in BindingDB's records for doi:10.1124/jpet.104.081562 (Mayo Clinic, 2005).

By Ki is commonly meant a dissociation constant, usually derived from enzyme kinetics or from competition with a known ligand.

This assay concerns the target T1, Promotilin (Homo sapiens, UniProt P12872).
T1 sequence (P12872 whole entry): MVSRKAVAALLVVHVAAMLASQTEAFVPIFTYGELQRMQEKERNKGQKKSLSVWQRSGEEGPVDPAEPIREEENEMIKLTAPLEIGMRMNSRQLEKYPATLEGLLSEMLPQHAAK
On to `CC[C@H](C)[C@H](NC(=O)[C@H](CCCN=C(N)N)NC(=O)[C@H](CCC(N)=O)NC(=O)[C@H](CC(C)C)NC(=O)[C@H](CCC(=O)O)NC(=O)CNC(=O)[C@H](Cc1ccc(O)cc1)NC(=O)[C@@H](NC(=O)[C@@H](Cc1ccc(C(=O)c2ccccc2)cc1)NC(=O)[C@@H](NC(=O)[C@@H]1CCCN1C(=O)[C@@H](NC(=O)[C@@H](N)Cc1ccccc1)C(C)C)[C@@H](C)CC)[C@@H](C)O)C(=O)N[C@@H](CCC(N)=O)C(=O)N[C@@H](CCC(=O)O)C(=O)N[C@@H](CCCCN)C(=O)N[C@@H](CCC(=O)O)C(=O)N[C@@H](CCCN=C(N)N)C(=O)N[C@@H](CC(N)=O)C(=O)N[C@@H](CCCCN)C(=O)NCC(=O)N[C@@H](CCC(N)=O)C(=O)O` [[D-Bpa5,Ile13]Motilin], for which the inhibition constant (Ki) worked out at 420 nM. This lies in the sub-micromolar range.

With `CC[C@H](C)[C@H](NC(=O)[C@H](CCCN=C(N)N)NC(=O)[C@H](CCC(N)=O)NC(=O)[C@H](CC(C)C)NC(=O)[C@H](CCC(=O)O)NC(=O)CNC(=O)[C@H](Cc1ccc(O)cc1)NC(=O)[C@@H](NC(=O)[C@H](Cc1ccc(C(=O)c2ccccc2)cc1)NC(=O)[C@@H](NC(=O)[C@@H]1CCCN1C(=O)[C@@H](NC(=O)[C@@H](N)Cc1ccccc1)C(C)C)[C@@H](C)CC)[C@@H](C)O)C(=O)N[C@@H](CCC(N)=O)C(=O)N[C@@H](CCC(=O)O)C(=O)N[C@@H](CCCCN)C(=O)N[C@@H](CCC(=O)O)C(=O)N[C@@H](CCCN=C(N)N)C(=O)N[C@@H](CC(N)=O)C(=O)N[C@@H](CCCCN)C(=O)NCC(=O)N[C@@H](CCC(N)=O)C(=O)O` [[L-Bpa5,Ile13]Motilin], the Ki was determined as 50 nM.

`CC[C@H](C)[C@H](NC(=O)[C@@H]1CCCN1C(=O)[C@@H](NC(=O)[C@@H](N)Cc1ccccc1)C(C)C)C(=O)N[C@@H](Cc1ccccc1)C(=O)N[C@H](C(=O)N[C@@H](Cc1ccc(O)cc1)C(=O)NCC(=O)N[C@@H](CCC(=O)O)C(=O)N[C@@H](CC(C)C)C(=O)N[C@@H](CCC(N)=O)C(=O)N[C@@H](CCCNC(=N)N)C(=O)N[C@@H](CCSC)C(=O)N[C@@H](CCC(N)=O)C(=O)N[C@@H](CCC(=O)O)C(=O)N[C@@H](CCCCN)C(=O)N[C@@H](CCC(=O)O)C(=O)N[C@@H](CCCNC(=N)N)C(=O)N[C@@H](CC(N)=O)C(=O)N[C@@H](CCCCN)C(=O)NCC(=O)N[C@@H](CCC(N)=O)C(=O)O)[C@@H](C)O` [CAS_52906-92-0] displayed an inhibition constant (Ki) of 2.3 nM.
